Test [1] has as its target T1, GST-tagged macro-domain protein (Archaeoglobus fulgidus, UniProt O28751).
T1 construct: For the N-terminal GST fusion of AF1521 the gene for residues 1-192 was synthesized; made in house; host or cells: E. coli BL21 Star (DE3) / BL21 Tuner (DE3)
T1 sequence (O28751 1-192): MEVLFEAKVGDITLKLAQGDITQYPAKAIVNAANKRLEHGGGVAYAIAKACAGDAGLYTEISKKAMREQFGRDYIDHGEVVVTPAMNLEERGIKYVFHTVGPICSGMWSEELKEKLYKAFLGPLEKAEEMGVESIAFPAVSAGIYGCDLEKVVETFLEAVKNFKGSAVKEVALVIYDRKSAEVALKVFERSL
The test can be described thus: Titration curve: competition with biotinylated ADP-ribose for binding to the macro-domain protein (luminescence signal). The following applies: rising concentration of competitor against biotinylated ADP-ribose. How it is done: (§1) After that 2 µl of an acetylated peptide (final concentration of 10 µM) mixed with NAD^+ (final concentration of 500 µM, dissolved in assay buffer 1) and 2 µl of SIRT enzyme (final concentration of 20 nM for 1x SIRT (100% CTL) and 200 nM for 10x SIRT (1000% CTL), dissolved in assay buffer 1) are added by a Multidrop combi. After an incubation time of 20 min at room temperature 4 µl biotinylated ADP-ribose (final concentration 50 nM, dissolved in assay buffer 2) and 4 µl GST tagged macro-domain protein (final concentration 50 nM, dissolved in assay buffer 2) are added by a Multidrop combi. After another incubation time of 60 min at room temperature 4 µl of acceptor beads and 4 µl of donor beads (final concentration of each bead-type 20 µg/ml, both dissolved in assay buffer 2) are added by a Multidrop combi. The plates are then sealed and incubated in the dark at room temperature for at least 30 min. After the incubation period, the plates are measured using the Envision reader from Perkin Elmer.
Assay was performed as described in example 4 (general SOP) besides the fact that instead of ADP-ribose 2'/3'-O-acetyl-ADP-ribose was used for the titration curve.
Assay was performed as described in example 4 (general SOP) employing non-biotinylated ADP-ribose for the titration curve.

The target of a further test is T2, SIRT1 (Homo sapiens, UniProt Q96EB6).
T2 construct: made in house; host or cells: E. coli BL21 Star (DE3)
T2 sequence (Q96EB6 183-664): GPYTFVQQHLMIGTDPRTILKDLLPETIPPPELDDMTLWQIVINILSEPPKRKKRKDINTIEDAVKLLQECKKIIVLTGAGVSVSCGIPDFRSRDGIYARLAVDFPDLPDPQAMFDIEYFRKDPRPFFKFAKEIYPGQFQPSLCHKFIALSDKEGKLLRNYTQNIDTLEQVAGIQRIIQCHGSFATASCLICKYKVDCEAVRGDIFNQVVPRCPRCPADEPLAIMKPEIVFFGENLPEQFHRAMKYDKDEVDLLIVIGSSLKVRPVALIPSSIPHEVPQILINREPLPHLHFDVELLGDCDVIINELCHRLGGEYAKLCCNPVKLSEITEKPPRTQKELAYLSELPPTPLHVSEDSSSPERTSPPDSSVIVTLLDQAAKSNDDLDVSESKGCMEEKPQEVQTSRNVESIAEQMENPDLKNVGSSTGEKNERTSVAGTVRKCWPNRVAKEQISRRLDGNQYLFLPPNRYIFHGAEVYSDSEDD
Kind of test: Macro-domain protein assay for SIRT modulators (detection of generated 2'/3'-O-acetyl-ADP-ribose, donor/acceptor beads). In kind it is biochemical. The conditions noted are these: 10x SIRT (200 nM), 10 µM compound. How it is done: 200 nl of test compound in 100% DMSO (final concentration of compound 10 µM; DMSO 1%) is given in the 384-well plates by a Cybio Cybiwell capillary head pipettor.
as §1, with “Elmer. […]” for “Elmer.”

A further test addresses T3, GST-tagged AF1521 (Archaeoglobus fulgidus, UniProt O28751).
T3 construct: For the N-terminal GST fusion of AF1521 the gene for residues 1-192 was synthesized; made in house; host or cells: E. coli BL21 Star (DE3) / BL21 Tuner (DE3)
T3 sequence (O28751 1-192): T1 sequence (O28751 1-192)
The test can be described thus: Nucleotide ligand binding assay by isothermal calorimetry (ITC). The conditions noted are these: for ΔG: change in Gibbs free energy of binding; for ΔS: change in entropy. How it is done:
Nucleotide binding assays were performed using isothermal calorimetry (ITC) on a ITC200 (Microcal) at 25°C. Protein was buffer exchanged using PD10 columns (GE Healthcare) into 50 mM Tris pH 7.5; 150 mM NaCl and 1 mM TCEP. Nucleotides were resuspended in ITC buffer and their concentration were determined through absorbance at 260 nm. Macro-domain proteins were used at 50 µM concentration, whereas the nucleotides were used at 500 µM. ITC measurements were performed by 20 successive injections of 2 µl of the nucleotides into 280 µl of AF1521 with a duration of 4 seconds and 150 seconds of spacing. Data analysis was done using the software ORIGIN 7.0 (Microcal).
For orientation: Isothermal titration calorimetry measures the heat released or taken up as one component is titrated into another.

The mark [2] stands for this setting: ITC at 25°C, protein 50 µM, nucleotide 500 µM, read-out: KD.

The record followed here is patent EP3076175A1, “DETECTION AND QUANTIFICATION OF O-ACETYL-ADP-RIBOSE AS A READOUT SYSTEM FOR MEASURING THE ACTIVITY OF E.G. SIRTUINS” (Boehringer Ingelheim International GmbH, priority 2015, dated 2016).

Where two headings read alike, the source gives them in different places.

Turning to `Nc1ncnc2c1ncn2[C@@H]1O[C@H](COP(=O)(O)OP(=O)(O)OC[C@H]2OC(O)[C@H](O)[C@@H]2O)[C@@H](O)[C@H]1O` (some centres unmarked) [ADP-ribose], in test [1], the luminescence signal entry was “the luminescence signal decreases”.
For the compound `Cc1ccc(C(=O)Nc2ccc(S(=O)(=O)O)c3cc(S(=O)(=O)O)cc(S(=O)(=O)O)c23)cc1NC(=O)c1cccc(NC(=O)Nc2cccc(C(=O)Nc3cc(C(=O)Nc4ccc(S(=O)(=O)O)c5cc(S(=O)(=O)O)cc(S(=O)(=O)O)c45)ccc3C)c2)c1` [Suramin], on SIRT1, the “amount of generated 2'/3'-O-acetyl-ADP-ribose” value is reported as “reduces the amount of generated 2'/3'-O-acetyl-ADP-ribose”.
As a reminder, the Kd is the concentration at which binding is half-saturated. As to `Nc1ncnc2c1ncn2[C@@H]1O[C@H](COP(=O)(O)OP(=O)(O)OC[C@@H](O)[C@@H](O)[C@@H](O)C=NOCC(=O)NCCOCCOCCOCCOCCNC(=O)CCCC[C@@H]2SC[C@@H]3NC(=O)N[C@@H]32)[C@@H](O)[C@H]1O` [biotinylated ADP-ribose], at GST-tagged AF1521 (ITC at 25°C), the “-TΔS” value was determined as 0.383 kcal/mol, the ΔG was -7.64 kcal/mol and the ΔS is -1,3 cal/mol/K. Further, the Kd at GST-tagged AF1521 (setting [2]) came out at 2550 nM. Moreover, the Kd on GST-tagged AF1521 (ITC, read-out: KD value) was found to be 2500 nM.
As to `CC(=O)O[C@@H]1[C@@H](COP(=O)(O)OP(=O)(O)OC[C@H]2O[C@@H](n3cnc4c(N)ncnc43)[C@H](O)[C@@H]2O)OC(O)[C@@H]1O` (some centres unmarked) [acetyl ADP-ribose, 2'/3'-O-acetyl-ADP-ribose], on GST-tagged AF1521 (ITC at 25°C), the “-TΔS” value is -2.271 kcal/mol, the ΔG was -7.339 kcal/mol and the ΔS is on record as 7,63 cal/mol/K. Besides, the Kd on GST-tagged AF1521 (setting [2]) was 4140 nM. Moreover, the ΔH on GST-tagged AF1521 (change in enthalpy, ITC at 25°C) was -5.07 kcal/mol. The luminescence signal entry in test [1] is on record as “the luminescence signal decreases”.
Take `O=C(Nc1nccs1)c1cccc2ccc(-c3cccc(OC4CCNCC4)c3)nc12` [EX00001253]: on SIRT1, the “amount of generated 2'/3'-O-acetyl-ADP-ribose” value is “reduces the amount of generated 2'/3'-O-acetyl-ADP-ribose”.
